Measurements as given in patent publication US20130131161A1, “METHODS AND COMPOSITIONS FOR CARDIOVASCULAR DISEASES AND CONDITIONS” (priority 2009, published 2013).

Tested on: Human umbilical vein endothelial cells (HUVECs)
Test: eNOS activity analysis: NO, ONOO− and NO/ONOO− release from HUVECs of 50 genotyped donors in response to LA-419 (Example 2)
Format: cell-based
Procedure: Concurrent measurements of NO and ONOO^− were carried out with tandem electrochemical nanosensors combined into one working unit with a total diameter of 200-500 nm (FIG. 1). Their design was based on previously developed and well-characterized chemically modified carbon-fiber technology (Malinski and Taha, 1992; Lvovich and Scheeline, 1997). Each of the nanosensors was made by depositing a sensing material on the tip of a carbon fiber (length 4-5 μm, diameter 0.2-0.5 μm). The fibers were sealed with nonconductive epoxy and electrically connected to copper wires with conductive silver epoxy. A conductive film of polymeric nickel (II) tetrakis(3-methoxy-4-hydroxyphenyl)porphyrin for the NO-sensor and polymeric film of Mn (III) [2.2]paracyclophanylporphyrin was used for the ONOO^−-sensor.
A module of NO/ONOO^− nanosensors (diameter 1-2 μm) with a platinum wire (0.1 mm) counter electrode and saturated calomel reference electrode (SCE) were applied. Differential pulse voltammetry (DPV) and amperometry were performed with a computer-based Gamry VFP600 multichannel potentiostat. DPV was used to measure the basal NO and ONOO^− concentrations, and amperometry was used to measure changes in NO and ONOO^− concentrations from its basal level with time. The DPV current at the peak potential characteristic for NO oxidation (0.65 V) and ONOO^− reduction (−0.45 V) was directly proportional to the local concentrations of these compounds in the immediate vicinity of the sensor. Linear calibration curves (current vs. concentration) were constructed for each sensor from 10 nM to 3 μM before and after measurements with aliquots of NO and ONOO^− standard solutions, respectively. The detection limit of the sensors was 1.0 nM.
The quantification of each analyte (concentration in nM) was performed using a maximum current from amperograms and standard calibration curves. A reproducibility of measurements with nanosensors is relatively high (between 5-12%). […] The sensors were slowly raised 5±2 μm from the surface of a single endothelial cell. The eNOS agonist, calcium ionophore A23187 (CaI) as well as the different drugs were then added to the surrounding media at the cell surface with a nanoinjector that was also positioned by a computer controlled-micromanipulator.
This example describes the genotype-specific response of the three major eNOS variants to 1 μM and 5 μM concentrations of LA-419. The three major genetic polymorphisms studied were the Glu298Asp variant (E298D or 894G→T) in exon 7 of […], the −786T→C variant in the promoter region, and the intron 4 polymorphism (VNTR). All of these variants have possible effects on the cardiovascular system and endothelial dysfunction. For this study, human umbilical vein endothelial cells (HUVECs) from 50 donors between 18 and 32 years of age were used.
For the analysis several analysis techniques were employed. First, the effect of genotype on NO and ONOO^− release was explored within the different concentrations of LA-419 (control, 1 μM, 5 μM), calculated as the average peak release (nmols/L) of NO, ONOO^−, and NO/ONOO^−. The effect of genotype on the net increase in NO, ONOO^−, and NO/ONOO^− for LA-419 (1 μM and 5 μM) as compared to control was also measured. In addition, an analysis was done on the effect of genotype on the % change in NO, ONOO^−, and NO/ONOO^− production for LA-419 (1 μM and 5 μM), calculated as:
% Change=[(avg. LA-419−avg. control)/(avg. control)]*100
Finally, an evaluation was undertaken concerning the effect of genotype on the production of NO, ONOO^−, and NO/ONOO^− as the fold difference of control for LA-419 (1 μM and 5 μM), calculated as:
Fold Difference=(avg. LA-419)/(avg. control)
Within each calculation technique the results were compared for statistical significance using a non-parametric ANOVA Kruskal-Wallace test or a non-parametric Mann-Whitney U test. Statistical significance was set at a p-value <0.05 in a two-tailed distribution. […]

[1] = (LA-419 5 μM)/(control), T-786C C/C, n=4
[2] = (LA-419 5 μM)/(control), T-786C T/C & C/C, n=27
[3] = (LA-419 5 μM)/(control), T-786C T/C, n=23
[4] = (LA-419 5 μM)/(control), T-786C T/T & T/C, n=45
[5] = (LA-419 5 μM)/(control), T-786C T/T, n=22
[6] = Caucasian, (LA-419 1 μM)/(control), Combination of all G894T + T-786C genotypes but G/G + T/T, n=19
[7] = Caucasian, (LA-419 1 μM)/(control), G894T + T-786C G/G + T/C, n=3
[8] = Caucasian, (LA-419 1 μM)/(control), G894T + T-786C G/G + T/T, n=7
[9] = Caucasian, (LA-419 1 μM)/(control), G894T + T-786C G/T + T/C, n=10
[10] = Caucasian, (LA-419 1 μM)/(control), G894T + T-786C G/T + T/T, n=3
[11] = Caucasian, (LA-419 1 μM)/(control), G894T + T-786C T/T + T/C, n=2
[12] = Caucasian, (LA-419 1 μM)/(control), G894T G/G, n=10
[13] = Caucasian, (LA-419 1 μM)/(control), G894T G/T & T/T, n=16
[14] = Caucasian, (LA-419 1 μM)/(control), G894T G/T, n=13
[15] = Caucasian, (LA-419 1 μM)/(control), G894T T/T, n=3
[16] = Caucasian, (LA-419 1 μM)/(control), Intron 4 b/a & a/a, n=6
[17] = Caucasian, (LA-419 1 μM)/(control), Intron 4 b/a, n=5
[18] = Caucasian, (LA-419 1 μM)/(control), Intron 4 b/b, n=18
[19] = Caucasian, (LA-419 1 μM)/(control), T-786C T/C & C/C, n=16
[20] = Caucasian, (LA-419 1 μM)/(control), T-786C T/C, n=15
[21] = Caucasian, (LA-419 1 μM)/(control), T-786C T/T, n=10
[22] = Caucasian, (LA-419 5 μM)/(control), Combination of all G894T + T-786C genotypes but G/G + T/T, n=19
[23] = Caucasian, (LA-419 5 μM)/(control), G894T + T-786C G/G + T/C, n=3
[24] = Caucasian, (LA-419 5 μM)/(control), G894T + T-786C G/G + T/T, n=7
[25] = Caucasian, (LA-419 5 μM)/(control), G894T + T-786C G/T + T/C, n=10
[26] = Caucasian, (LA-419 5 μM)/(control), G894T + T-786C G/T + T/T, n=3
[27] = Caucasian, (LA-419 5 μM)/(control), G894T + T-786C T/T + T/C, n=2

SMILES: CC(=O)SC1COC2C(O[N+](=O)[O-])COC12 (stereo not drawn) [LA-419, S-(6-Nitro-oxi-hexahydro-furo[3,2-b]furan-3-1-il)thioacetate]
- Fold difference NO (mean ± sd) [1]: 1.12 (0.06)
- Fold difference NO/ONOO− (mean ± sd) [1]: 1.42 (0.13)
- Fold difference ONOO− (mean ± sd) [1]: 0.79 (0.08)
- Fold difference NO (mean ± sd) [2]: 1.13 (0.07)
- Fold difference NO/ONOO− (mean ± sd) [2]: 1.39 (0.13)
- Fold difference ONOO− (mean ± sd) [2]: 0.82 (0.06)
- Fold difference NO (mean ± sd) [3]: 1.14 (0.07)
- Fold difference NO/ONOO− (mean ± sd) [3]: 1.39 (0.14)
- Fold difference ONOO− (mean ± sd) [3]: 0.82 (0.06)
- Fold difference NO (mean ± sd) [4]: 1.15 (0.06)
- Fold difference NO/ONOO− (mean ± sd) [4]: 1.44 (0.16)
- Fold difference ONOO− (mean ± sd) [4]: 0.81 (0.07)
- Fold difference NO (mean ± sd) [5]: 1.16 (0.06)
- Fold difference NO/ONOO− (mean ± sd) [5]: 1.49 (0.18)
- Fold difference ONOO− (mean ± sd) [5]: 0.79 (0.08)
- Fold difference NO (mean ± sd) [6]: 1.20 (0.29)
- Fold difference NO/ONOO− (mean ± sd) [6]: 1.61 (0.77)
- Fold difference ONOO− (mean ± sd) [6]: 0.81 (0.16)
- Fold difference NO (mean ± sd) [7]: 1.13 (0.03)
- Fold difference NO/ONOO− (mean ± sd) [7]: 1.27 (0.04)
- Fold difference ONOO− (mean ± sd) [7]: 0.89 (0.02)
- Fold difference NO (mean ± sd) [8]: 1.25 (0.12)
- Fold difference NO/ONOO− (mean ± sd) [8]: 1.63 (0.72)
- Fold difference ONOO− (mean ± sd) [8]: 0.84 (0.22)
- Fold difference NO (mean ± sd) [9]: 1.29 (0.37)
- Fold difference NO/ONOO− (mean ± sd) [9]: 1.75 (0.91)
- Fold difference ONOO− (mean ± sd) [9]: 0.81 (0.16)
- Fold difference NO (mean ± sd) [10]: 1.08 (0.03)
- Fold difference NO/ONOO− (mean ± sd) [10]: 1.21 (0.04)
- Fold difference ONOO− (mean ± sd) [10]: 0.90 (0.06)
- Fold difference NO (mean ± sd) [11]: 1.11 (0.36)
- Fold difference NO/ONOO− (mean ± sd) [11]: 2.25 (1.17)
- Fold difference ONOO− (mean ± sd) [11]: 0.52 (0.11)
- Fold difference NO (mean ± sd) [12]: 1.21 (0.12)
- Fold difference NO/ONOO− (mean ± sd) [12]: 1.52 (0.61)
- Fold difference ONOO− (mean ± sd) [12]: 0.86 (0.18)
- Fold difference NO (mean ± sd) [13]: 1.21 (0.32)
- Fold difference NO/ONOO− (mean ± sd) [13]: 1.68 (0.83)
- Fold difference ONOO− (mean ± sd) [13]: 0.79 (0.17)
- Fold difference NO (mean ± sd) [14]: 1.24 (0.33)
- Fold difference NO/ONOO− (mean ± sd) [14]: 1.63 (0.82)
- Fold difference ONOO− (mean ± sd) [14]: 0.83 (0.15)
- Fold difference NO (mean ± sd) [15]: 1.08 (0.26)
- Fold difference NO/ONOO− (mean ± sd) [15]: 1.90 (1.02)
- Fold difference ONOO− (mean ± sd) [15]: 0.63 (0.19)
- Fold difference NO (mean ± sd) [16]: 1.25 (0.33)
- Fold difference NO/ONOO− (mean ± sd) [16]: 1.52 (0.70)
- Fold difference ONOO− (mean ± sd) [16]: 0.86 (0.10)
- Fold difference NO (mean ± sd) [17]: 1.28 (0.35)
- Fold difference NO/ONOO− (mean ± sd) [17]: 1.58 (0.77)
- Fold difference ONOO− (mean ± sd) [17]: 0.85 (0.12)
- Fold difference NO (mean ± sd) [18]: 1.21 (0.25)
- Fold difference NO/ONOO− (mean ± sd) [18]: 1.69 (0.80)
- Fold difference ONOO− (mean ± sd) [18]: 0.79 (0.20)
- Fold difference NO (mean ± sd) [19]: 1.22 (0.31)
- Fold difference NO/ONOO− (mean ± sd) [19]: 1.69 (0.82)
- Fold difference ONOO− (mean ± sd) [19]: 0.79 (0.17)
- Fold difference NO (mean ± sd) [20]: 1.24 (0.32)
- Fold difference NO/ONOO− (mean ± sd) [20]: 1.72 (0.84)
- Fold difference ONOO− (mean ± sd) [20]: 0.79 (0.17)
- Fold difference NO (mean ± sd) [21]: 1.20 (0.13)
- Fold difference NO/ONOO− (mean ± sd) [21]: 1.50 (0.62)
- Fold difference ONOO− (mean ± sd) [21]: 0.86 (0.18)
- Fold difference NO (mean ± sd) [22]: 1.13 (0.06)
- Fold difference NO/ONOO− (mean ± sd) [22]: 1.37 (0.10)
- Fold difference ONOO− (mean ± sd) [22]: 0.83 (0.06)
- Fold difference NO (mean ± sd) [23]: 1.19 (0.02)
- Fold difference NO/ONOO− (mean ± sd) [23]: 1.47 (0.08)
- Fold difference ONOO− (mean ± sd) [23]: 0.81 (0.03)
- Fold difference NO (mean ± sd) [24]: 1.19 (0.08)
- Fold difference NO/ONOO− (mean ± sd) [24]: 1.47 (0.14)
- Fold difference ONOO− (mean ± sd) [24]: 0.81 (0.04)
- Fold difference NO (mean ± sd) [25]: 1.11 (0.05)
- Fold difference NO/ONOO− (mean ± sd) [25]: 1.33 (0.06)
- Fold difference ONOO− (mean ± sd) [25]: 0.84 (0.04)
- Fold difference NO (mean ± sd) [26]: 1.14 (0.06)
- Fold difference NO/ONOO− (mean ± sd) [26]: 1.39 (0.14)
- Fold difference ONOO− (mean ± sd) [26]: 0.83 (0.11)
- Fold difference NO (mean ± sd) [27]: 1.12 (0.09)
- Fold difference NO/ONOO− (mean ± sd) [27]: 1.29 (0.01)
- Fold difference ONOO− (mean ± sd) [27]: 0.87 (0.06)
- Fold difference NO (mean ± sd) (Caucasian, (LA-419 5 μM)/(control), G894T G/G, n=10): 1.19 (0.07)
